Laboratory results taken from patent publication US7671026B2, “Cytomodulating peptides for treating interstitial cystitis” (Sangstat Medical Corporation, priority 2002, dated 2010).

Key:
[1] = system: CD3 positive cells; assay: Chronic interstitial cystitis model, CD3/CD45 immunostaining of bladder sections; format: in vivo, mice; conditions: animals exposed to LPS, then RDP58; 24 hrs and 72 hrs after RDP58 treatment
Protocol: Chronic IC model was induced in mice by transurethrally catheterizing mice and instilling with 15 ug of E.coli. lipopolysaccharide (LPS) in 150 ul. Controls were instilled with 150 ul of saline. Animals were treated three times per week for two weeks. To determine the effect of RDP58, animals were instilled with the peptide following 14 days of LPS instillation. Histological analyses of the bladders were carried out 24 or 72 hrs post treatment. Cytokine levels were assayed by removing the bladder 24 hrs following RDP58 treatment, culturing the tissue ex vivo, and assaying for cytokines, as described above. Bladder permeability used the FITC-dextran assay.
Bladder from the various animal groups were removed after the treatments and then sectioned. Morphology was examined by staining with haematoxylin-eosin. Sections were examined for the presence of T-cell differentiation markers CD3 or CD45 by immunostaining with anti-CD45 and anti-CD3 antibodies.

[2] = system: TNF-α; assay: Ex vivo LPS-stimulated bladder tissue culture, TNF-α ELISA; format: cell-based, mice; conditions: first study; BALB/c bladder tissue, 1 ug LPS + RDP58 50 uM final, 18 hrs, each pool
Protocol: The ability of RDP58 peptide bc-1nL in inhibiting cytokine production in bladder cells was examined. In a first study, BALB/c mice were euthanized with CO2 and the bladders harvested after voiding it of urine. Bladders were gently washed with RMPI 1640 media containing penicillin and streptomycin and minced into 1-2 mm pieces. Equal amounts of tissue were incubated overnight at 37° C. in 0.5 ml of RPMI culture medium in the presence of 1 ug LPS (E. coli. 055:B5; Sigma), 50 ul of RDP58 peptide (1 mg/ml) (50 uM final concentration), 1 ug LPS+50 ul of RDP58 peptde, or media alone. The culture supernatants were collected after 18 hrs, clarified by centrifugation, and assayed by ELISA for cytokines TNF-αand IFN-γ.
In a second study, bladders from 12 normal mice were harvested, pooled into four sets of three bladders, and the tissues minced into 1-2 mm pieces. Equal amounts of tissue were incubated overnight in culture media containing LPS, RDP58 peptide, LPS+RDP58 peptide, or media, as described above. After clarifying the culture medium by centrifugation, supernatants were assayed for presence of TNF-α by ELISA.

Arg-nL-nL-nL-Arg-nL-nL-nL-Gly-Tyr [RDP58]
CD3 positive cells in bladder tissue sections [1]: reduction of CD3 positive cells | inhibition of TNF-α production [2]: about 30%
